Laboratory results: patent US20090264433A1, “Compounds, Compositions and Methods Comprising Triazine Derivatives” (Institute for OneWorld Health, priority 2008, published 2009)
Values joined by “and” are separate entries in the source; they are usually repeats but may differ in a detail not shown here. Equal values may be shown once.

Tested on: mice (CD1 strain), CTX-injected small intestinal loops
Settings: mouse, in vivo

| SMILES | closed loop % inhibition |
| --- | --- |
| Oc1c(Br)cc(-c2cnc(COc3cccc(Cl)c3Cl)nn2)cc1Br [Compound 30, 2,6-dibromo-4-(3-((2,3-dichlorophenoxy)methyl)-1,2,4-triazin-6-yl)phenol] | 94.4% |
| Oc1c(Br)cc(-c2cnc(OCc3ccc(Cl)cc3)nn2)cc1Br [Compound 20, 2,6-dibromo-4-(3-(4-chlorobenzyloxy)-1,2,4-triazin-6-yl)phenol] | 87.6% |
| Oc1c(Cl)cc(-c2cnc(OCc3ccccc3F)nn2)cc1Cl [Compound 127, 2,6-dichloro-4-(3-(2-fluorobenzyloxy)-1,2,4-triazin-6-yl)phenol] | 70.2% and 62.7% |
| Oc1c(Br)cc(-c2cnc(OCCc3ccccc3)nn2)cc1Br [Compound 96, 2,6-dibromo-4-(3-phenethoxy-1,2,4-triazin-6-yl)phenol] | 78.6% |
| Oc1c(Cl)cc(-c2cnc(C(O)(c3ccccc3)c3ccccc3)nn2)cc1Cl [Compound 36, 2,6-dichloro-4-(3-(hydroxydiphenylmethyl)-1,2,4-triazin-6-yl)phenol] | 74.9% and 62.1% |
